Assay results taken from the supplement of paper PMC10307832.

Legend:
Experiment in all cases: relative viability (nuclei count vs DMSO), 5 days (fraction); higher = more cells survive
[1] = compound: CC1=C(C(=O)N2C=CSC2=N1)CCN3CCC(=C(C4=CC=CC=C4)C5=CC=C(C=C5)F)CC3 + CC(=O)Nc1cccc(-n2c(=O)n(C3CC3)c(=O)c3c(Nc4ccc(I)cc4F)n(C)c(=O)c(C)c32)c1 [Trametinib] (partner 0.02 µM)
Summary of the method: (§1)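 Lung cancer cell lines in 1536-well plates were dosed by pin tool the day after seeding, either with one drug alone or with a fixed anchor-drug dose plus five library-drug doses (not always all listed) in √10 steps. After 5 days, cells were fixed and their nuclei stained in one step (final 0.05% Triton X-100, 1% formaldehyde, 1 ug/ml Hoechst), then counted on 4× images. Relative viability is the nuclei count in treated wells divided by that in vehicle wells. Values are medians of duplicate plates.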

[2] = compound: CC1=C(C(=O)N2C=CSC2=N1)CCN3CCC(=C(C4=CC=CC=C4)C5=CC=C(C=C5)F)CC3 + CS(=O)(=O)CCNCc1ccc(-c2ccc3ncnc(Nc4ccc(OCc5cccc(F)c5)c(Cl)c4)c3c2)o1 [Lapatinib] (partner 2 µM)
Summary of the method: as §1

[3] = compound: CC1=C(C(=O)N2C=CSC2=N1)CCN3CCC(=C(C4=CC=CC=C4)C5=CC=C(C=C5)F)CC3 + O=C(c1cc(Cc2n[nH]c(=O)c3ccccc23)ccc1F)N1CCN(C(=O)C2CC2)CC1 [Olaparib] (partner 8 µM)
Summary of the method: as §1

[4] = compound: CC1=C(C(=O)N2C=CSC2=N1)CCN3CCC(=C(C4=CC=CC=C4)C5=CC=C(C=C5)F)CC3 + N=C(N)NC(=N)NCCc1ccccc1 [Phenformin] (partner 250 µM)
Summary of the method: as §1

| Cell Line | relative viability ([1]; first compound 0.08 µM) | relative viability ([1]; first compound 0.253 µM) | relative viability ([1]; first compound 0.8 µM) | relative viability ([1]; first compound 2.53 µM) | relative viability ([1]; first compound 8 µM) | relative viability ([2]; first compound 0.08 µM) | relative viability ([2]; first compound 0.253 µM) | relative viability ([2]; first compound 0.8 µM) | relative viability ([2]; first compound 2.53 µM) | relative viability ([2]; first compound 8 µM) | relative viability ([3]; first compound 0.08 µM) | relative viability ([3]; first compound 0.253 µM) | relative viability ([3]; first compound 0.8 µM) | relative viability ([3]; first compound 2.53 µM) | relative viability ([3]; first compound 8 µM) | relative viability ([4]; first compound 0.08 µM) | relative viability ([4]; first compound 0.253 µM) | relative viability ([4]; first compound 0.8 µM) | relative viability ([4]; first compound 2.53 µM) | relative viability ([4]; first compound 8 µM) |
| --- | --- | --- | --- | --- | --- | --- | --- | --- | --- | --- | --- | --- | --- | --- | --- | --- | --- | --- | --- | --- |
| LU99A | 0.584 | 0.522 | 0.586 | 0.502 | 0.353 | 0.894 | 1.04 | 0.998 | 1.06 | 0.835 | 0.151 | 0.244 | 0.234 | 0.254 | 0.227 | 0.777 | 0.846 | 0.767 | 0.841 | 0.658 |
| NCI-H1793 | 0.433 | 0.407 | 0.443 | 0.47 | 0.426 | 0.793 | 0.535 | 0.748 | 0.864 | 0.575 | 0.536 | 0.807 | 0.937 | 1.08 | 0.521 | 0.301 | 0.379 | 0.404 | 0.402 | 0.241 |
| LC-2-ad | 0.943 | 0.98 | 0.938 | 0.95 | 0.606 | 1.01 | 1.08 | 0.88 | 1.2 | 0.861 | 0.87 | 0.79 | 0.65 | 0.875 | 0.574 | 0.656 | 0.656 | 0.543 | 0.62 | 0.566 |
| IA-LM |  |  |  |  |  |  | 0.585 | 0.789 | 0.853 | 0.405 | 0.93 | 0.926 | 0.848 | 0.709 | 0.687 |  |  |  |  |  |
| NCI-H2405 | 0.711 |  | 0.676 | 0.742 | 0.464 | 1.29 | 1.06 | 1.05 | 1.17 | 0.955 | 0.941 |  | 0.889 | 0.989 | 0.79 | 0.373 | 0.366 | 0.399 | 0.375 | 0.332 |
| HCC-366 | 0.422 | 0.384 | 0.377 | 0.404 | 0.216 |  | 0.778 | 1.02 | 1.71 | 0.412 | 0.331 | 0.287 | 0.469 | 0.464 | 0.226 | 0.638 | 0.65 | 0.626 | 0.579 | 0.472 |
| NCI-H2342 | 0.667 | 0.82 | 0.791 | 0.886 | 0.769 |  |  |  |  |  | 0.38 | 0.44 | 0.435 | 0.426 | 0.43 | 0.557 | 0.605 | 0.52 | 0.597 | 0.523 |
| A-427 | 0.762 | 0.686 | 0.712 | 0.818 | 0.681 | 1.12 | 0.962 | 0.994 | 1.15 | 1.08 | 0.779 | 0.74 | 0.723 | 0.803 | 0.658 | 0.291 | 0.287 | 0.283 | 0.301 | 0.266 |
| HCC-15 | 0.352 | 0.432 | 0.342 | 0.38 | 0.349 | 0.961 | 0.667 | 0.885 | 1.02 | 0.73 | 0.777 | 0.782 | 0.716 | 0.736 | 0.643 | 0.432 | 0.453 | 0.434 | 0.423 | 0.334 |
| ABC-1 |  |  |  |  |  | 1.11 | 1.18 | 1.14 | 1.3 | 0.674 | 0.836 |  | 0.99 | 1.01 | 0.536 | 0.267 | 0.223 | 0.212 | 0.248 | 0.197 |
| Calu-6 |  |  |  |  |  | 1.04 | 0.925 | 1.1 | 1.4 | 0.817 | 0.475 | 0.602 | 0.642 | 0.573 | 0.462 |  |  |  |  |  |
| NCI-H1703 |  |  |  |  |  | 1.57 | 0.717 | 1.23 | 1.69 | 0.62 | 0.385 | 0.334 | 0.427 | 0.577 | 0.432 |  |  |  |  |  |
| EBC-1 |  |  |  |  |  | 0.196 |  | 0.212 | 0.191 | 0.225 | 0.596 | 0.756 | 0.777 | 0.772 | 0.463 |  |  |  |  |  |
| LCLC-103H | 0.672 | 0.645 | 0.68 | 0.743 | 0.549 |  |  |  |  |  | 0.876 | 0.71 | 0.859 | 0.735 | 0.667 | 0.327 | 0.331 | 0.316 | 0.308 | 0.289 |
| ChaGo-K-1 | 0.821 | 0.926 | 0.961 | 0.963 | 0.673 |  |  |  |  |  | 0.451 | 0.415 | 0.411 | 0.458 | 0.416 | 0.561 | 0.462 | 0.53 | 0.539 | 0.431 |
| NCI-H441 | 0.423 | 0.404 | 0.445 | 0.541 | 0.372 |  |  |  |  |  | 0.5 | 0.502 | 0.515 | 0.642 | 0.367 | 0.797 | 0.759 | 0.918 | 0.737 | 0.667 |
| A549 |  |  |  |  |  | 1.06 | 0.884 | 0.922 | 1.23 | 0.797 |  | 0.212 | 0.385 | 0.36 | 0.151 | 0.101 | 0.203 | 0.206 | 0.112 | 0.151 |
| NCI-H1299 |  |  |  |  |  | 1.04 | 0.88 | 0.97 | 1.03 | 0.767 | 1.04 | 1.01 | 0.957 | 0.977 | 0.803 |  |  |  |  |  |
